Measurements reported in PMC8252765, “Human Oxygenase Variants Employing a Single Protein Fe^II Ligand Are Catalytically Active” (Angewandte Chemie (International Ed. in English), 2021).
Positions count from the first letter of the chain named. Read-outs that look alike come from different tables or passages of the source.

Key:
H679A His6-AspH315-758 [1] = target: T1, H679A His6-AspH315-758 (Homo sapiens, UniProt Q12797, H679A); assay: Steady-state kinetics of H679A AspH by SPE-MS; format: biochemical; details: H679A AspH 0.2 μM, parameter for the varied (co)substrate (label), 25 mM HEPES pH 7.5, n=3
T1 construct: containing H679A or H725A His6-AspH315-758 variant (0.2 μM); made in house; host or cells: E. coli BL21 (DE3), pET-28a(+)
T1 sequence (Q12797 315-758 H679A): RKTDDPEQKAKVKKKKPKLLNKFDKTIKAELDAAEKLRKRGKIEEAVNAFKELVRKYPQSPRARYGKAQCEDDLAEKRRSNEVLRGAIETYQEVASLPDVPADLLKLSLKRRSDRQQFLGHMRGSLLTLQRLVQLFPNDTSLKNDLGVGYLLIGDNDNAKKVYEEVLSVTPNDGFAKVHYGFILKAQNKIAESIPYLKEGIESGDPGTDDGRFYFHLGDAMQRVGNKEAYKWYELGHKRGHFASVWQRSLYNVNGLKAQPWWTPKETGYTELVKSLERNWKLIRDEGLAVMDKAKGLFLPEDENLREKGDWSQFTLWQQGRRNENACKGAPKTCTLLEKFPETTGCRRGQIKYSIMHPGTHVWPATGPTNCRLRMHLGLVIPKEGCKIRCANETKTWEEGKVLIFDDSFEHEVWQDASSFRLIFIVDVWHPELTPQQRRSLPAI
Procedure: Supporting Figure S5. […] Turnover […]
numbers (kapp or k ) and Michaelis constants (Kapp or K ) of the H679A AspH variant were determined in […]
MS (SPE-MS parameters are given i n Section 2 of the Supporting Information ). Conditions: 0.2 μM H679A His6- […]
HEPES (pH 7.5, 20° C). Measurement times were normalized to the first sample injection analysed after the […]
Data are shown as the mean average of three independent runs (n = 3; mean ± standard deviation, SD).
Turnover numbers (kapp or k ) were calculated from the maximum velocities (vapp or v ) values obtained, […]
assuming ideal active site availability as supported by a reported active site titration of wt AspH.[4] […]
substrate in the absence of LAA for the shown Fe(II) concentrations (conditions: 0.2 μM H679A His6-AspH315- […]
substrate in the presence of LAA for the shown Fe(II) concentrations (conditions: 0.2 μM H679A His6-AspH315- […]

H725A His6-AspH315-758 [2] = target: T2, H725A His6-AspH315-758 (Homo sapiens, UniProt Q12797, H725A); assay: Steady-state kinetics of H725A AspH by SPE-MS; format: biochemical; details: H725A AspH 0.2 μM, parameter for the varied (co)substrate (label), 25 mM HEPES pH 7.5, n=3
T2 construct: containing H679A or H725A His6-AspH315-758 variant (0.2 μM); made in house; host or cells: E. coli BL21 (DE3), pET-28a(+)
T2 sequence (Q12797 315-758 H725A): T1 sequence (Q12797 315-758 H679A) with A365H, H411A
Procedure: page 11: Supporting Figure S6. Kinetic parameters for […] AspH (continues on the following page). Turnover numbers (kapp or k ) and Michaelis constants (Kapp or K ) of the […] AspH-catalysed hydroxylation of […] peptide by SPE- MS (SPE-MS parameters are given in Section 2 of the Supporting Information). […] HEPES (pH 7.5, 20° C). […] Data are shown as the mean average of three independent runs (n = 3; mean ± standard deviation, SD). Turnover numbers (kapp or k ) were calculated from the maximum velocities (vapp or v ) values obtained, cat cat max max assuming ideal active site availability as supported by a reported active site titration of wt AspH.[4] (a) Time course of the […] AspH for Fe(II) in the absence of LAA; (c) Kapp of […] AspH for Fe(II) in the absence m of LAA. (d) Time course of the […] AspH for Fe(II) in the presence of LAA; (f) Kapp of […] AspH for Fe(II) in the m presence of LAA. […] AspH variant-catalysed hydroxylation reaction of […] (k) hydroxylation rates used to determine kinetic parameters of […] AspH for […]. […] AspH for […] peptide substrate. […]

[3] = system: γ‐butyrobetaine hydroxylase; set-up: method as in PMID 22730246; details: reported value; cited from earlier work
H679A His6-AspH315-758 [4] = target: T1, H679A His6-AspH315-758; assay: H679A AspH variant SPE-MS inhibition assay; format: biochemical
H725A His6-AspH315-758 [5] = target: T2, H725A His6-AspH315-758; assay: H725A AspH variant SPE-MS inhibition assay; format: biochemical
wt AspH = details: cited from earlier work
wt His6-AspH315-758 = system: T3, wt His6-AspH315-758; assay: Steady-state kinetics of wt AspH by SPE-MS; format: biochemical, human; details: wt AspH 0.1 μM, parameter for the varied (co)substrate (label), 25 mM HEPES pH 7.5, 50 mM NaCl, n=3
T3 construct: Conditions: 0.1 μM wt His6-AspH315-758 using; His6 (N); made in house
Procedure: Supporting Figure S4. Kinetic parameters for wt AspH (continues on the following page). Turnover numbers […]
ammonium iron(II) sulfate hexahydrate (FAS, (NH 4)2Fe(SO 4)2·6H2O), both in the presence and absence of L - ascorbic acid (LAA ) monitoring the AspH-catalysed hydroxylation of the hFX-EGFD186-124-4Ser peptide (Supporting Figure S2a) by SPE-MS (SPE-MS parameters are given in Section 2 of the Supporting Information).
Conditions: 0.1 μM wt His6-AspH315-758 using
C; note, to increase enzyme activity, 50 mM NaCl was added to the reaction buffer). Measurement times were normalized to the first sample injection analysed after the addition of the Enzyme Mixture to the Substrate Mixture […]
Data are shown as the mean average of three independent runs (n = 3; mean ± standard deviation, SD). Turnover numbers (kapp) were calculated from the […]
maximum velocities (vapp ) values obtained, assuming ideal active site availability as supported by a reported […]
active site titration of wt AspH.[4]
(a) Time course of the wt AspH-catalysed hydroxylation reaction of the hFX-EGFD186-124-4Ser peptide substrate […]
and 4.0 μM hFX-EGFD1 86-124-4Ser); (b) hydroxylation rates used to determine kinetic parameters of wt AspH for Fe(II) in the absence of LAA; ( c) Kapp of wt AspH for Fe(II) in the absence of LAA.
(d) Time course of the wt AspH-catalysed hydroxylation reaction of the hFX-EGFD186-124-4Ser peptide substrate in the presence of LAA for the shown Fe(II) concentrations (conditions: 0.1 μM wt His6-AspH315-758, 100 μM […]
parameters of wt AspH for Fe(II) in the presence of LAA; (f) Kapp of wt AspH for Fe(II) in the presence of LAA. […]
(g) Time course of the wt AspH-catalysed hydroxylation reaction of the hFX-EGFD186-124-4Ser peptide substrate […]
(1 picture or pasted object on this page, not shown here)

[6] = 0.1 μM H679A AspH, 4.0 μM hFX-EGFD1_86-124-4Ser, 110 μM 2OG, 4 μM Fe^II, SPE-MS, n=2, read-out: IC50
[7] = 0.1 μM H725A AspH, 4.0 μM hFX-EGFD1_86-124-4Ser, 215 μM 2OG, 10 μM Fe^II, SPE-MS, n=2, read-out: IC50

With `O=C(O)CCC(=O)C(=O)O` [2OG, 2‐oxoglutarate] as the compound, how does the Kmapp (H679A His6-AspH315-758 [1]; with LAA (400 μM)) read?
Its Kmapp is 109 ± 20 µM.

And the kcatapp (H679A His6-AspH315-758 [1]; with LAA (400 μM))?
The kcatapp was 0.18 ± 0.01 s⁻¹.

What about the Kmapp (H725A His6-AspH315-758 [2]; with LAA (400 μM)) of the same compound?
The Kmapp was 211 ± 65 µM.

What about the kcatapp (H725A His6-AspH315-758 [2]; with LAA (400 μM)) of the same compound?
Its kcatapp is 0.08 ± 0.01 s⁻¹.

What about the “2OG Kmapp‐value” [3] of the same compound?
Its value is 150 to 470 µM.

Which results are given for `[Cl-].[Cl-].[Co+2]` [CoCl2]?
IC50 (H679A His6-AspH315-758 [4]; n=2, read-out: IC50): 1500 ± 200 nM; IC50 (H725A His6-AspH315-758 [5]; n=2, read-out: IC50): 3000 ± 500 nM; IC50 (wt AspH): 400 ± 200 nM

With `[Cl][Mn][Cl]` [MnCl2] as the compound, how does the IC50 (H679A His6-AspH315-758 [4]; [6]) read?
Its IC50 is 23100 ± 8600 nM.

And the IC50 (H725A His6-AspH315-758 [5]; [7])?
Its IC50 is > 40000 nM.

And the IC50 (wt AspH; wt AspH, 2 μM Fe^II, 3 μM 2OG)?
The IC50 was 5100 ± 1100 nM.

For `O=S(=O)([O-])[O-].[Ni+2]` [NiSO4], which IC50 (H679A His6-AspH315-758 [4]; read-out: IC50) is on record?
Its IC50 is 2700 ± 400 nM.

And the IC50 (H725A His6-AspH315-758 [5]; read-out: IC50)?
Its IC50 is 1800 ± 400 nM.

And the IC50 (wt AspH)?
Its IC50 is 170 ± 80 nM.

Which results are given for `O=C(O)CNC(=O)C(=O)O` [N‐oxalyl‐glycine (NOG), N‐oxalylglycine]?
IC50 (H679A His6-AspH315-758 [4]; 0.1 μM H679A AspH, 4.0 μM hFX-EGFD1_86-124-4Ser, 110 μM 2OG, 4 μM Fe^II, SPE-MS, n=2): inactive; IC50 (H679A His6-AspH315-758 [4]; 0.1 μM H679A AspH, 4.0 μM hFX-EGFD1_86-124-4Ser, 110 μM 2OG, 4 μM Fe^II, SPE-MS, n=2, listed as NOG): does not apparently inhibit; IC50 (H725A His6-AspH315-758 [5]; 0.1 μM H725A AspH, 4.0 μM hFX-EGFD1_86-124-4Ser, 215 μM 2OG, 10 μM Fe^II, SPE-MS, n=2): inactive; IC50 (H725A His6-AspH315-758 [5]; 0.1 μM H725A AspH, 4.0 μM hFX-EGFD1_86-124-4Ser, 215 μM 2OG, 10 μM Fe^II, SPE-MS, n=2, listed as NOG): does not apparently inhibit; IC50 (wt AspH): 1100 ± 300 nM

Which results are given for `CC(=O)[O-].CC(=O)[O-].[Zn+2]` [Zn(OAc)2]?
IC50 (H679A His6-AspH315-758 [4]; [6]): 160 ± 10 nM; IC50 (H725A His6-AspH315-758 [5]; [7]): 160 ± 10 nM; IC50 (wt AspH; wt AspH, 2 μM Fe^II, 3 μM 2OG): 50 ± 10 nM

For `O=C(O)c1ccnc(C(=O)O)c1` [pyridine‐2,4‐dicarboxylic acid], which IC50 (H679A His6-AspH315-758 [4]; read-out: IC50) is on record?
The IC50 was 130 ± 10 nM.

And the IC50 (H725A His6-AspH315-758 [5]; read-out: IC50)?
The IC50 was 11200 ± 1400 nM.

And the IC50 (wt AspH; wt AspH, 2 μM Fe^II, 3 μM 2OG)?
The IC50 was 30 ± 10 nM.

What about the IC50 (wt AspH; wt AspH, at 3 μM 2OG) of the same compound?
The IC50 was ~30 nM.

What about the IC50 (wt AspH; wt AspH, at 200 μM 2OG) of the same compound?
The IC50 was ~100 nM.

Which Kmapp (H679A His6-AspH315-758 [1]; with LAA (400 μM)) does the source give for “ammonium iron(II) sulfate hexahydrate [Fe^II]” here?
Its Kmapp is 2.7 ± 0.5 µM.

And the kcatapp (H679A His6-AspH315-758 [1]; with LAA (400 μM))?
The kcatapp was 0.19 ± 0.01 s⁻¹.

And the Kmapp (H679A His6-AspH315-758 [1]; without LAA)?
The Kmapp was 4.4 ± 0.8 µM.

And the kcatapp (H679A His6-AspH315-758 [1]; without LAA)?
The kcatapp was 0.18 ± 0.01 s⁻¹.

What about the Kmapp (H725A His6-AspH315-758 [2]; with LAA (400 μM)) of the same compound?
Its Kmapp is 8.1 ± 1.8 µM.

And the kcatapp (H725A His6-AspH315-758 [2]; with LAA (400 μM))?
Its kcatapp is 0.10 ± 0.01 s⁻¹.

And the Kmapp (H725A His6-AspH315-758 [2]; without LAA)?
The Kmapp was 12.3 ± 3.0 µM.

What about the kcatapp (H725A His6-AspH315-758 [2]; without LAA) of the same compound?
Its kcatapp is 0.09 ± 0.01 s⁻¹.

And the Kmapp (wt His6-AspH315-758; with LAA (100 μM))?
The Kmapp was 4.3 ± 1.6 µM.

What about the kcatapp (wt His6-AspH315-758; with LAA (100 μM)) of the same compound?
Its kcatapp is 0.27 ± 0.04 s⁻¹.

What about the Kmapp (wt His6-AspH315-758; without LAA) of the same compound?
The Kmapp was 7.2 ± 2.6 µM.

And the kcatapp (wt His6-AspH315-758; without LAA, hFX-EGFD1 peptide hydroxylation)?
The kcatapp was 0.24 ± 0.04 s⁻¹.
